Test results: patent publication US10941121B2 (AZIENDA OSPEDALIERA UNIVERSITARIA SENESE, priority 2015, dated 2021)
Where two headings read alike, the source gives them in different places.

Tests used:
[1] = system: Hepatitis C Virus (HCV) replicon system; assay: HCV replicon system, luciferase method in LucUbiNeo-ET cells; settings: for EC50: Hepatitis C virus, 48 h, read-out: EC50 (μM) HCV replicon system
[2] = Cytotoxicity, MTT method in LUNET cells; format: cell-based; settings: human; MMT method in LUNET cells; read-out: CC50 (μM) non-infected cells
Method: Toxicity (CC50) was analysed in the Lunet/HuH7 cells by the addition of 10 μL of MTT (3-(4,5-dimethylthiazol-2-yl)-2,5-diphenyltetrazolium bromide) per well. After 4 h of incubation at 37° C. in a humidified atmosphere with 5% CO2, the amount of formazan produced was quantified spectrophotometrically at 550/620 nm (C. Pannecouque et al, Nature protocol 2008; 3 (3): 427-434). […] These assays were done in duplicate.

[3] = biological target: T1, DDX3 Helicase (Homo sapiens, UniProt O00571); assay: biochemical
T1 sequence (O00571 whole entry): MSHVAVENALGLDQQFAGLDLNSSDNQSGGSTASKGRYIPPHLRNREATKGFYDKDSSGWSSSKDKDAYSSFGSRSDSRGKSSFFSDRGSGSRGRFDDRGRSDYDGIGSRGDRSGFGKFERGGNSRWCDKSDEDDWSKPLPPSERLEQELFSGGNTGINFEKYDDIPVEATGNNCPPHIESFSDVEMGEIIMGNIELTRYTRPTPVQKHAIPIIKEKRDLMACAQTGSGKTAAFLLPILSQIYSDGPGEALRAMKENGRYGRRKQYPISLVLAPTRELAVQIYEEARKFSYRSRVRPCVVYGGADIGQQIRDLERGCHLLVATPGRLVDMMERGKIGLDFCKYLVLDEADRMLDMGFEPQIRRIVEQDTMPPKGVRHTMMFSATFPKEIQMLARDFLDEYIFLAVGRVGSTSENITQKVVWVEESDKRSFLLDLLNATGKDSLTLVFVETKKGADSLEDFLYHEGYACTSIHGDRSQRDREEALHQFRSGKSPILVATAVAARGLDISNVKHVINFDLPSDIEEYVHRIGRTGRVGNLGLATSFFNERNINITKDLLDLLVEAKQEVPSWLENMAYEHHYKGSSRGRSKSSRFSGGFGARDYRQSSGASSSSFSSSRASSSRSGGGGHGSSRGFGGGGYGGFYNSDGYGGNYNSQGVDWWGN

[4] = biological target: T1, DDX3 Helicase; settings: for IC50: read-out: ID50 (μM) against DDX3 Helicase, n.a. = compound not active; for DDX3 helicase activity compared with EI01D: in words
[5] = Parallel Artificial Membrane Permeability Assay (PAMPA); format: in vitro ADME; settings: for Papp at 5 h, 0.5 mM: PAMPA, phosphatidylcholine in dodecane, pH 7.4, 5 h, room temperature, read-out: PAMPA Papp *10^−6 (cm/s) GI; for PAMPA membrane retention (RM %): value in brackets in the PAMPA cell
Method: Parallel Artificial Membrane Permeability Assay (PAMPA). Donor solution (0.5 mM) was prepared by diluting 1 mM dimethylsulfoxide (DMSO) compound stock solution using phosphate buffer (pH 7.4, 0.025 M). Filters were coated with 5 μL of a 1% (w/v) dodecane solution of phosphatidylcholine prepared from CHCl3 solution 10% w/v, for intestinal permeability. Donor solution (150 μL) was added to each well of the filter plate. To each well of the acceptor plate were added […] (50% DMSO in phosphate buffer). All compounds were tested in three different plates on different days. The sandwich was incubated for 5 h at room temperature under gentle shaking. After the incubation time, the plates were separated, and samples were taken from both receiver and donor sides and analyzed using LC with UV detection at 280 nm.
LC analysis were performed with a Varian Prostar HPLC system (Varian Analytical Instruments, USA) equipped with a binary pump with a manual injection valve and model Prostar 325 UV-VIS Detector.
Permeability (Papp) for PAMPA was calculated according to the following equation, obtained from Wohnsland and Faller and Sugano et al. equation with some modification in order to obtain permeability values in cm s^−1,
where VA is the volume in the acceptor well, VD is the volume in the donor well (cm^3), A is the “effective area” of the membrane (cm^2), t is the incubation time (s) and r the ratio between drug concentration in the acceptor and equilibrium concentration of the drug in the total volume (VD+VA). Drug concentration is estimated by using the peak area integration.
Membrane retentions (%) were calculated according to the following equation: […]
where r is the ratio between drug concentration in the acceptor and equilibrium concentration, D, A, and Eq represented drug concentration in the donor, acceptor and equilibrium solution, respectively.

[6] = Water Solubility Assay; format: physicochemical; settings: thermodynamic from solid
Method: Water Solubility Assay. Each solid compound (1 mg) was added to 1 mL of water. The samples were shaked in a shaker bath at room temperature for 24-36 h. The suspensions were filtered through a 0.45 μm nylon filter (Acrodisc), and the solubilized compound determined by LC-MS-MS assay. For each compound the determination was performed in triplicate.
For the quantification was used an LC-MS system consisted of a Varian apparatus (Varian Inc) including a vacuum solvent degassing unit, two pumps (212-LC), a Triple Quadrupole MSD (Mod. 320-LC) mass spectrometer with ES interface and Varian MS Workstation System Control Vers. 6.9 software. […] The flow rate was 0.2 mL min^−1 and injection volume was 5 μL. The instrument operated in positive mode and parameters were: detector 1850 V, drying gas pressure 25.0 psi, desolvation temperature 300.0° C., nebulizing gas 40.0 psi, needle 5000 V and shield 600 V. Nitrogen was used as nebulizer gas and drying gas. Collision induced dissociation was performed using Argon as the collision gas at a pressure of 1.8 mTorr in the collision cell.

[7] = experimental aqueous solubility, read-out: LogS (converted)
[8] = room temperature, 24-36 h, read-out: Aq. Solub.

Compound | EC50 [1] [µM] | CC50 [2] [µM] | IC50 [3] [µM] | other results
Cc1ccccc1NC(=O)Nc1ccc(-n2cc(C(C)(C)C)nn2)cc1 [Compound 8b, 1-(4-(4-tert-butyl-1H-1,2,3-triazol-1-yl)phenyl)-3-o-tolylurea] | 5.73 | 100 | 3.36 | 
Cc1ccccc1NC(=O)Nc1ccc(-n2cc(CN(C)Cc3ccccc3)nn2)cc1 [Compound 8c, 1-(4-(4-methanamine,N-[(phenyl)methyl]-N-methyl-1H-1,2,3-triazol-1yl)phenyl)-3-o-tolylurea] |  |  | 22.8 | 
Cc1ccccc1NC(=O)Nc1ccc(-n2cc(CCOC(=O)CC(C)C)nn2)cc1 [Compound 37, 2-(1-(4-(3-(o-tolyl)ureido)phenyl)-1H-1,2,3-triazol-4-yl)ethyl 3-methylbutanoate] | 11.7 | 180 |  | IC50 [4]: 1.3 µM
O=C(Nc1ccc(-n2cc(CCOC(=O)/C=C/c3ccc4c(c3)OCO4)nn2)cc1)Nc1ccccc1C(F)(F)F [Compound 39, 2-(1-(4-(3-(2-(trifluoromethyl)phenyl)ureido)phenyl)-1H-1,2,3-triazol-4-yl)ethyl 3-(benzo[d][1,3]dioxol-5-yl)acrylate] | 4.3 | 28.6 |  | IC50 [4]: 5.1 µM
Cc1ccccc1NC(=O)Nc1ccc(-n2cc(CCO)nn2)cc1 [Compound 35b, 1-(4-(4-(hydroxyethyl)-1H-1,2,3-triazol-1-yl)phenyl)-3-o-tolylurea] | 28.9 | > 370 | 20 | 
CCCCn1nnc(-c2ccc(NC(=O)Nc3cnccc3C)cc2)n1 [Compound 52, 1-(4-(2-butyl-2H-tetrazol-5-yl)phenyl)-3-(4-methylpyridin-3-yl)urea] |  |  | 2.49 | 
CC(C)CCc1cn(-c2ccc(NC(=O)Nc3ccccc3F)cc2)nn1 [Compound 55a, 1-(2-fluorophenyl)-3-(4-(4-isopentyl-1H-1,2,3-triazol-1-yl)phenyl)urea] | 0.4 | > 340 |  | activity against HCV, in words [1]: best activity; DDX3 helicase activity compared with EI01D [4]: approximately ten-fold more active; IC50 [4]: 0.12 µM
Cc1ccccc1NC(=O)Nc1ccc(-n2cc(CCCN(C)C)nn2)cc1 [Compound 35i, 1-(4-(4-(dimethylaminopropyl)-1H-1,2,3-triazol-1-yl)phenyl)-3-o-tolylurea] |  |  |  | IC50 [4]: 2.9 µM
Cc1ccccc1NC(=O)Nc1ccc(-n2cc(C(F)(F)C(F)(F)C(F)(F)C(F)(F)F)nn2)cc1 [Compound 20c] | > 125 | > 125 |  | IC50 [4]: 6 µM
Cc1cn(-c2ccc(NC(=O)Nc3ccccc3C)cc2)nn1 [Compound 8f, 1-(4-(4-methyl-1H-1,2,3-triazol-1-yl)phenyl)-3-o-tolylurea] | > 36 | 36 |  | 
Cc1ccncc1NC(=O)Nc1ccc(-n2cc(CCC(C)C)nn2)cc1 [Compound 15b, 1-(4-(4-isopentyl-1H-1,2,3-triazol-1-yl)phenyl)-3-(4-methylpyridin-3-yl)urea] | 3.65 | 180 | 2 | 
Cc1ccccc1NC(=O)Nc1ccc(-n2cc(CO)nn2)cc1 [Compound 35a, 1-(4-(4-(hydroxymethyl)-1H-1,2,3-triazol-1-yl)phenyl)-3-o-tolylurea] |  |  | 17.5 | 
CCOCn1nnc(-c2ccc(NC(=O)Nc3ccccc3C)cc2)n1 [Compound 50, 1-(4-(2-(ethoxymethyl)-2H-tetrazol-5-yl)phenyl)-3-(o-tolyl)urea] | 22.8 | 245 | 14 | 
CCCCc1cn(-c2ccc(S(=O)(=O)Nc3ccccc3O)cc2)nn1 [Compound 65a, 4-(4-butyl-1H-1,2,3-triazol-1-yl)-N-(2-hydroxyphenyl)benzenesulfonamide] |  |  | 15.5 | 
Cc1nc(Cl)c2ccccc2c1NC(=O)Nc1ccc(-n2cc(CCC(C)C)nn2)cc1 [Compound 55g, 1-(1-chloro-3-methylisoquinolin-4-yl)-3-(4-(4-isopentyl-1H-1,2,3-triazol-1-yl)phenyl)urea] | 12.4 | > 278 | 10 | 
Cc1ccccc1NC(=O)Nc1ccc(-n2cc(CN3CCOCC3)nn2)cc1 [Compound 35e, 1-(4-(4-(morpholinomethyl)-1H-1,2,3-triazol-1-yl)phenyl)-3-o-tolylurea] | > 125 | > 125 |  | 
Cc1c(Cl)cccc1NC(=O)Nc1ccc(-n2cc(CCC(C)C)nn2)cc1 [Compound 21b, 1-(3-chloro-2-methylphenyl)-3-(4-(4-isopentyl-1H-1,2,3-triazol-1-yl)phenyl)urea] | 6.11 | 42.1 |  | Papp at 5 h, 0.5 mM [5]: 2.51 ×10⁻⁶ cm/s; PAMPA membrane retention (RM %) [5]: 59.1%; solubility [6, 7]: < 0.00251 µM; solubility [6, 8]: < 1 ng/mL
CCCCc1cn(-c2cccc(S(=O)(=O)Nc3ccc(OC)cc3)c2)nn1 [Compound 64b, 3-(4-butyl-1H-1,2,3-triazol-1-yl)-N-(4-methoxyphenyl)benzenesulfonamide] |  |  | 52.2 | 
CCCC(C)C(F)c1cn(-c2ccc(NC(=O)Nc3ccccc3C(F)(F)F)cc2)nn1 (centres unmarked) [Compound 42c, 1-(4-(4-(1-fluoro-2-methylpentyl)-1H-1,2,3-triazol-1-yl)phenyl)-3-(2-(trifluoromethyl)phenyl) urea] |  |  | 0.3 | 
COCCc1cn(-c2ccc(NC(=O)Nc3ccccc3C)cc2)nn1 [Compound 20f, 1-(4-(4-(2-methoxyethyl)-1H-1,2,3-triazol-1-yl)phenyl)-3-o-tolylurea] | 28.8 | 44.4 |  | Papp at 5 h, 0.5 mM [5]: 0.69 ×10⁻⁶ cm/s; PAMPA membrane retention (RM %) [5]: 7.4%; IC50 [4]: 1 µM; solubility [6, 7]: 50.1 µM; solubility [6, 8]: 26300 ng/mL
CCc1cn(-c2ccc(NC(=O)Nc3ccccc3C)cc2)nn1 [Compound 8g, 1-(4-(4-ethyl-1H-1,2,3-triazol-1-yl)phenyl)-3-o-tolylurea] | 36 | 295 | 0.98 | 
CCCCc1cn(-c2ccc(NC(=O)Nc3cnccc3C)cc2)nn1 [Compound 15a, 1-(4-(4-butyl-1H-1,2,3-triazol-1-yl)phenyl)-3-(4-methylpyridin-3-yl)urea] |  |  | 1.47 | 
CC(C)CC(=O)OCCc1cn(-c2ccc(NC(=O)Nc3ccccc3C(F)(F)F)cc2)nn1 [Compound 38, 2-(1-(4-(3-(2-(trifluoromethyl)phenyl)ureido)phenyl)-1H-1,2,3-triazol-4-yl)ethyl 3-methylbutanoate] | 0.5 | 23.2 |  | IC50 [4]: 0.4 µM
CC(C)CCc1cn(-c2ccc(NC(=O)Nc3ccccc3C(F)(F)F)cc2)nn1 [Compound 22b, 1-(4-(4-isopentyl-1H-1,2,3-triazol-1-yl)phenyl)-3-(2-(trifluoromethyl)phenyl)urea] | 0.67 | 46.8 | 0.17 | Papp at 5 h, 0.5 mM [5]: 7.41 ×10⁻⁶ cm/s; PAMPA membrane retention (RM %) [5]: 24.8%; activity against HCV, in words [1]: best activity; DDX3 helicase activity compared with EI01D [4]: approximately ten-fold more active; solubility [6, 7]: < 0.00251 µM; solubility [6, 8]: 2 ng/mL
Cc1ccccc1NC(=O)Nc1ccc(-n2cc(CCN3CCOCC3)nn2)cc1 [Compound 35f, 1-(4-(4-(morpholinoethyl)-1H-1,2,3-triazol-1-yl)phenyl)-3-o-tolylurea] | > 125 | > 125 |  | 
